Data taken from paper PMC9402538, “Rational design of a sensitivity-enhanced tracer for discovering efficient APC–Asef inhibitors” (Nature Communications, 2022).
Like-named read-outs stand apart in the source and are kept apart here. Where a SMILES comes first, the peptide text is derived from it. [ ]: non-standard residue; d: D form. The star is where a group is joined. Ala(cPent) = N[C@@H](CC1CCCC1)C(=O)O; Benzoyl(4-OMe) = COc1ccc(C(=O)*)cc1

Biological target: T1, APC (303–739) (Homo sapiens, UniProt P25054)
T1 sequence (P25054 303-739): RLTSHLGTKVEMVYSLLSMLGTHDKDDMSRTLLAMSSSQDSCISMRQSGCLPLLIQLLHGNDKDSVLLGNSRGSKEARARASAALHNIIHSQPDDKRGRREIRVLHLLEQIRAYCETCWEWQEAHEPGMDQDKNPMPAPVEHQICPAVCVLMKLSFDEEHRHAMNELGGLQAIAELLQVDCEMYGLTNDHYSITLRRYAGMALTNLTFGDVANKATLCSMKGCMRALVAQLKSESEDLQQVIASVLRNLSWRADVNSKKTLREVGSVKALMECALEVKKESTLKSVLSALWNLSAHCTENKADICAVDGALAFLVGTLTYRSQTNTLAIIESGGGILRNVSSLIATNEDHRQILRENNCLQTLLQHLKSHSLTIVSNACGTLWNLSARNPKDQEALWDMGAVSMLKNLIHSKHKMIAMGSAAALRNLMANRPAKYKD
Assay: FP competitive assay using tracer 7
Format: binding
Settings: for IC50: tracer 7
Outline: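 Peptide dilutions were first incubated 1 h at room temperature with APC (303–739) in HEPES pH 7.5 buffer containing 300 mM NaCl, EDTA and DTT. Added FITC tracer 7 (400 nM stock) displaced over a further 1.5 h before polarization reading. IC50 values came from nonlinear regression fits of triplicate data.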

[1] = Conc. 4 μM, individual repeats, Fig3b

COc1ccc(C(=O)N[C@@H](C)C(=O)NCC(=O)N[C@@H](CCC(=O)O)C(=O)N[C@@H](CO)C(=O)N[C@@H](CC2CCCC2)C(=O)N[C@@H](Cc2ccc(O)cc2)C(=O)N[C@@H](CCC(=O)O)C(N)=O)cc1 [MAI-519] ({Benzoyl(4-OMe)}-AGES[Ala(cPent)]YE-NH2)
inhibition at 0.001 µM (Conc. 0.001 μM, individual repeats, Fig3b, read-out: %inhibition): 1.6% | %inhibition (Conc. 0.002 μM, individual repeats, Fig3b): 2.6% | inhibition at 0.002 µM (Conc. 0.002 μM, individual repeats, Fig3b, read-out: %inhibition): 2.9% | %inhibition (Conc. 0.0039 μM, individual repeats, Fig3b): 5.4% | inhibition at 0.0039 µM (Conc. 0.0039 μM, individual repeats, Fig3b, read-out: %inhibition): 4.1% | inhibition at 0.006 µM (Conc. 0.006 μM, individual repeats, Fig3b, read-out: %inhibition): 4.4% | %inhibition (Conc. 0.0078 μM, individual repeats, Fig3b): 13.3% | inhibition at 0.0078 µM (Conc. 0.0078 μM, individual repeats, Fig3b, read-out: %inhibition): 8.8% | inhibition at 0.012 µM (Conc. 0.012 μM, individual repeats, Fig3b, read-out: %inhibition): 16.9% | %inhibition (Conc. 0.0156 μM, individual repeats, Fig3b): 35% | inhibition at 0.0156 µM (Conc. 0.0156 μM, individual repeats, Fig3b, read-out: %inhibition): 24% | inhibition at 0.024 µM (Conc. 0.024 μM, individual repeats, Fig3b, read-out: %inhibition): 38.4% | %inhibition (Conc. 0.0313 μM, individual repeats, Fig3b): 59% | inhibition at 0.0313 µM (Conc. 0.0313 μM, individual repeats, Fig3b, read-out: %inhibition): 51.7% | inhibition at 0.049 µM (Conc. 0.049 μM, individual repeats, Fig3b, read-out: %inhibition): 60.2% | %inhibition (Conc. 0.0625 μM, individual repeats, Fig3b): 74.1% | inhibition at 0.0625 µM (Conc. 0.0625 μM, individual repeats, Fig3b, read-out: %inhibition): 71.7% | inhibition at 0.098 µM (Conc. 0.098 μM, individual repeats, Fig3b, read-out: %inhibition): 77.7% | %inhibition (Conc. 0.125 μM, individual repeats, Fig3b): 86.1% | inhibition at 0.125 µM (Conc. 0.125 μM, individual repeats, Fig3b, read-out: %inhibition): 85.5% | inhibition at 0.195 µM (Conc. 0.195 μM, individual repeats, Fig3b, read-out: %inhibition): 89% | %inhibition (Conc. 0.25 μM, individual repeats, Fig3b): 91.7% | inhibition at 0.25 µM (Conc. 0.25 μM, individual repeats, Fig3b, read-out: %inhibition): 92.8% | inhibition at 0.391 µM (Conc. 0.391 μM, individual repeats, Fig3b, read-out: %inhibition): 94.2% | %inhibition (Conc. 0.5 μM, individual repeats, Fig3b): 95.8% | inhibition at 0.5 µM (Conc. 0.5 μM, individual repeats, Fig3b, read-out: %inhibition): 96.7% | inhibition at 0.781 µM (Conc. 0.781 μM, individual repeats, Fig3b, read-out: %inhibition): 97.3% | %inhibition (Conc. 1 μM, individual repeats, Fig3b): 97.7% | inhibition at 1 µM (Conc. 1 μM, individual repeats, Fig3b, read-out: %inhibition): 98.4% | inhibition at 1.563 µM (Conc. 1.563 μM, individual repeats, Fig3b, read-out: %inhibition): 98.1% | inhibition at 2 µM (Conc. 2 μM, individual repeats, Fig3b, read-out: %inhibition): 99.3% | inhibition at 3.125 µM (Conc. 3.125 μM, individual repeats, Fig3b, read-out: %inhibition): 98.9% | %inhibition [1]: 98.8% | inhibition at 4 µM [1]: 99% | inhibition at 6.25 µM (Conc. 6.25 μM, individual repeats, Fig3b, read-out: %inhibition): 99.5% | inhibition at 8 µM (Conc. 8 μM, individual repeats, Fig3b): 99% | inhibition at 12.5 µM (Conc. 12.5 μM, individual repeats, Fig3b, read-out: %inhibition): 97.6% | inhibition at 25 µM (Conc. 25 μM, individual repeats, Fig3b, read-out: %inhibition): 97.6% | inhibition at 50 µM (Conc. 50 μM, individual repeats, Fig3b, read-out: %inhibition): 97.6% | mean (FP signal, FigS5) (Repeat 1, Conc. 0.006 μM): 284.3 | mean (FP signal, FigS5) (Repeat 1, Conc. 0.012 μM): 253.5 | mean (FP signal, FigS5) (Repeat 1, Conc. 0.024 μM): 200.3 | mean (FP signal, FigS5) (Repeat 1, Conc. 0.049 μM): 146.3 | mean (FP signal, FigS5) (Repeat 1, Conc. 0.098 μM): 103 | mean (FP signal, FigS5) (Repeat 1, Conc. 0.195 μM): 75 | mean (FP signal, FigS5) (Repeat 1, Conc. 0.391 μM): 62 | mean (FP signal, FigS5) (Repeat 1, Conc. 0.781 μM): 54.3 | mean (FP signal, FigS5) (Repeat 1, Conc. 1.563 μM): 52.3 | mean (FP signal, FigS5) (Repeat 1, Conc. 3.125 μM): 50.3 | mean (FP signal, FigS5) (Repeat 1, Conc. 6.25 μM): 49 | mean (FP signal, FigS5) (Repeat 1, Conc. 12.5 μM): 53.7 | mean (FP signal, FigS5) (Repeat 1, Conc. 25 μM): 53.7 | mean (FP signal, FigS5) (Repeat 1, Conc. 50 μM): 53.7 | mean (FP signal, FigS5) (Repeat 2, Conc. 0.001 μM): 301 | mean (FP signal, FigS5) (Repeat 2, Conc. 0.002 μM): 297.7 | mean (FP signal, FigS5) (Repeat 2, Conc. 0.0039 μM): 294.7 | mean (FP signal, FigS5) (Repeat 2, Conc. 0.0078 μM): 282.7 | mean (FP signal, FigS5) (Repeat 2, Conc. 0.0156 μM): 244 | mean (FP signal, FigS5) (Repeat 2, Conc. 0.0313 μM): 173.3 | mean (FP signal, FigS5) (Repeat 2, Conc. 0.0625 μM): 122.3 | mean (FP signal, FigS5) (Repeat 2, Conc. 0.125 μM): 87.3 | mean (FP signal, FigS5) (Repeat 2, Conc. 0.25 μM): 68.7 | mean (FP signal, FigS5) (Repeat 2, Conc. 0.5 μM): 58.7 | mean (FP signal, FigS5) (Repeat 2, Conc. 1 μM): 54.3 | mean (FP signal, FigS5) (Repeat 2, Conc. 2 μM): 52 | mean (FP signal, FigS5) (Repeat 2, Conc. 4 μM): 53 | mean (FP signal, FigS5) (Repeat 2, Conc. 8 μM): 53 | mean (FP signal, FigS5) (Repeat 3, Conc. 0.001 μM): 292.7 | mean (FP signal, FigS5) (Repeat 3, Conc. 0.002 μM): 290.3 | mean (FP signal, FigS5) (Repeat 3, Conc. 0.0039 μM): 283.3 | mean (FP signal, FigS5) (Repeat 3, Conc. 0.0078 μM): 264 | mean (FP signal, FigS5) (Repeat 3, Conc. 0.0156 μM): 211 | mean (FP signal, FigS5) (Repeat 3, Conc. 0.0313 μM): 152 | mean (FP signal, FigS5) (Repeat 3, Conc. 0.0625 μM): 115 | mean (FP signal, FigS5) (Repeat 3, Conc. 0.125 μM): 85.7 | mean (FP signal, FigS5) (Repeat 3, Conc. 0.25 μM): 72 | mean (FP signal, FigS5) (Repeat 3, Conc. 0.5 μM): 62 | mean (FP signal, FigS5) (Repeat 3, Conc. 1 μM): 57.3 | mean (FP signal, FigS5) (Repeat 3, Conc. 2 μM): 56.3 | mean (FP signal, FigS5) (Repeat 3, Conc. 4 μM): 54.7 | mean (FP signal, FigS5) (Repeat 3, Conc. 8 μM): 53.3 | IC50 (mean of three repeats, read-out: IC50 mean): 25.1 nM | IC50 (read-out: IC50 Repeat 1): 23 nM | IC50 (read-out: IC50 Repeat 2): 29.6 nM | IC50 (read-out: IC50 Repeat 3): 22.7 nM
